The results in this text go back to patent US20100267779A1, “Novel Compounds and Methods of Using Them” (SYNDAX PHARMACEUTICALS, INC., priority 2007, published 2010).

The test system of this assay is HDAC. Description: Alternative HDAC activity assay (Cayman Chemicals fluorescent-based HDAC activity assay). The note with it: acetylated lysine substrate, HDAC developer, fluorescence readout; compared with MS-275. The format is biochemical. As for the experimental part:
Cayman Chemicals markets a commercial fluorescent-based HDAC activity assay. The assay utilizes a fluorescent-based method for measuring HDAC activity that eliminates radioactivity, extraction or chromatography. The assay requires two steps: first, an acetylated lysine substrate is incubated with samples containing HDAC activity. Deacetylation sensitizes the substrate such that treatment with the HDAC developer in the second step releases a fluorescent product. The fluorophore can be analyzed using a fluorescence plate reader or a fluorometer with […].

As for `C[C@@H](OC(=O)NCc1ccc(C(=O)Nc2ccccc2N)cc1)c1cccnc1` [(R)-1-(pyridin-3-yl)ethyl 4-(2-aminophenylcarbamoyl)benzylcarbamate], the “HDAC activity (fluorescent-based HDAC activity assay, FIG. 1)” value is recorded as “activity similar to MS-275”. For the molecule `C[C@H](OC(=O)NCc1ccc(C(=O)Nc2ccccc2N)cc1)c1cccnc1` [(S)-1-(pyridin-3-yl)ethyl 4-(2-aminophenylcarbamoyl)benzylcarbamate], the “HDAC activity (fluorescent-based HDAC activity assay, FIG. 1)” value was “activity similar to MS-275”.
